From ChEMBL document CHEMBL1201862, “PubChem BioAssay data set” (2004)
Active and inactive are the calls of the source.

How the values were obtained:
[1] = molecular target: FAD-linked sulfhydryl oxidase ALR (Homo sapiens, UniProt P55789); assay: inhibitors of human ALR sulfhydryl oxidase, dose response, biochemical, H2O2 detection, luminescence, cherry-pick (AID 493248)
[2] = molecular target: T1, Heat shock factor protein 1 (Mus musculus, UniProt P38532); assay: HSF1 potentiators in luciferase reporter cells, confirmation, cell-based, NIH3T3, luminescence, dose retest (AID 435004); assay type: functional;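 further: stress induced by proteasome inhibitor MG132 added 30 min after compound; luciferase reporter driven by HSF1 response element in NIH3T3 cells; actives raise luminescence as potentiators of the MG132 stress response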
T1 sequence (P38532 whole entry): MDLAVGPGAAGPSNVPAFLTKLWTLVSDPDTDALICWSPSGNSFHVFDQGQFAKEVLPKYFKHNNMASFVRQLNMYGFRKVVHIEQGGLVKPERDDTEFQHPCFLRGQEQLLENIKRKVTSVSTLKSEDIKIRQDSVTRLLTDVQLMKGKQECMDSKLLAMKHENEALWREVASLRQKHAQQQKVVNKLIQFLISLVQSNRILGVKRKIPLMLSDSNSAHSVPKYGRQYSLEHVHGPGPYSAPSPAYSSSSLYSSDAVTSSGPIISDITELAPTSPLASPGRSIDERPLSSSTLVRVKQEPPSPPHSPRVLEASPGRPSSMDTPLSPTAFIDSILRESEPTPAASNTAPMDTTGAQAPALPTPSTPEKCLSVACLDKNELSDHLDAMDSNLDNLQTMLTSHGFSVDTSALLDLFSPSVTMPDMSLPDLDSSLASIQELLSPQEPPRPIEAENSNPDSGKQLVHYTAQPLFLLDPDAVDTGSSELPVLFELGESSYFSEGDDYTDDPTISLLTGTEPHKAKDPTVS

[3] = molecular target: T1, Heat shock factor protein 1; assay: inhibition of MG132-induced HSE-luciferase signal, confirmation, cell-based, NIH3T3, luminescence, dose retest (AID 2382); assay type: functional;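 further: NIH3T3 fibroblasts with HSF1-driven luciferase reporter stressed by proteasome inhibitor MG132; luminescence from HSF1-driven luciferase expression after 8 hours of MG132 stress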
[4] = cells; assay type: functional
[5] = molecular target: T2, Rac GTPase-activating protein 1 (Homo sapiens, UniProt Q9H0H5); assay: MgcRacGAP GTPase-activating activity inhibitors, confirmation, biochemical, ADP Hunter fluorescence, primary and confirmatory (AID 624330); assay type: functional
T2 sequence (Q9H0H5 whole entry): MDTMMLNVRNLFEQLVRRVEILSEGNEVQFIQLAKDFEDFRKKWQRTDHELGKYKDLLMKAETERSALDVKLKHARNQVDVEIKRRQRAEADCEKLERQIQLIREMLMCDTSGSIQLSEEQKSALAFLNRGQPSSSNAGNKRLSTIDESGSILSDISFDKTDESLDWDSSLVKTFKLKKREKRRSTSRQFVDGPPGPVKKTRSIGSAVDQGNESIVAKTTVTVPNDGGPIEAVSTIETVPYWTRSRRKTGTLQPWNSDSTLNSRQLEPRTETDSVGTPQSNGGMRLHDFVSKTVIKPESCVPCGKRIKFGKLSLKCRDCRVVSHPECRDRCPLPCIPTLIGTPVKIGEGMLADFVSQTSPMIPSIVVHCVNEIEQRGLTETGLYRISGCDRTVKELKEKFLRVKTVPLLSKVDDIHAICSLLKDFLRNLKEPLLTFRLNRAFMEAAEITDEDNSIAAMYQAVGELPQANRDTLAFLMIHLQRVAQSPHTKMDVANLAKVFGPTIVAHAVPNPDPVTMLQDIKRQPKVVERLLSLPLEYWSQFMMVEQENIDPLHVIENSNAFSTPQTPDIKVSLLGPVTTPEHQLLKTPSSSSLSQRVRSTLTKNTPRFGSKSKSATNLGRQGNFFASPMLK

[6] = Luminescence Cell-Based Dose Confirmation HTS to Identify Activators of 5'UTR Stem-Loop Driven Alpha-Synuclein mRNA Translation in H4 Neuroglioblastoma Cells. [Related pubchem assays: 1829 (Project Summary), 1814 (Primary HTS)]; assay type: functional
[7] = system: H4; assay: Luminescence Cell-Based Dose Response HTS to Identify Activators of 5'UTR Stem-Loop Driven Prion Protein mRNA Translation in H4 Neuroglioblastoma Cells. [Related pubchem assays: 1829 (Project Summary), 1814 (Primary HTS)]; assay type: functional; details: Homo sapiens
[8] = Luminescence Cell-Based Dose Response HTS to Identify Activators of Luciferase Translation or Activity in H4 […] Cells. [Related pubchem assays: 1829 (Project Summary), 1814 (Primary HTS)]; assay type: functional
[9] = molecular target: Cytochrome P450 2C19 (Homo sapiens, UniProt P33261); assay: Cytochrome panel assay with activity outcomes. Panel member name: p450-cyp2c19 Compounds with AC50 equal or less than 10 uM are considered active; assay type: functional; details: read-out: AC50
Sequence of Cytochrome P450 2C19 (P33261 whole entry): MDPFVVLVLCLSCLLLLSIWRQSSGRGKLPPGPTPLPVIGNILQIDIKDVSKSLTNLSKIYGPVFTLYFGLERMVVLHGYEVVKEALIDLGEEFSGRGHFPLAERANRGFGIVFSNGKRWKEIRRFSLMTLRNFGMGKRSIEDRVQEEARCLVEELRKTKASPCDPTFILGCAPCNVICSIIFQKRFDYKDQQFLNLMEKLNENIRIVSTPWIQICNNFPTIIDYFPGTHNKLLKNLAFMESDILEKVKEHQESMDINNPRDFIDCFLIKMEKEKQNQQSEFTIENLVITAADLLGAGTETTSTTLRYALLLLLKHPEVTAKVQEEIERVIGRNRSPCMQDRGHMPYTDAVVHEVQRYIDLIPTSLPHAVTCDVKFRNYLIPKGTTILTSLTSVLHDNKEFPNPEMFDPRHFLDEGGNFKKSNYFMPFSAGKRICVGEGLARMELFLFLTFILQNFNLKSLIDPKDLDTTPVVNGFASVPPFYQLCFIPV

[10] = control 3'UTR Renilla luciferase suppression, dose response, counter-screen for Shn3 inhibitor project, cell-based, Clone20-Shn3RL, cherry-picked (AID 624133); assay type: functional
[11] = inhibitors of firefly luciferase expression or activity, dose response, H4 neuroglioma cells, luminescence (AID 1990); assay type: functional, cell-based
[12] = inhibitors of SNCA 5'UTR-driven reporter translation, confirmation, H4 neuroglioma cells, luminescence (AID 1988); assay type: functional, cell-based
[13] = molecular target: Nonstructural protein 1 (Influenza A virus, UniProt Q194T2); assay type: functional, Influenza A virus (A/California/07/2009(H1N1))
Sequence of Nonstructural protein 1 (Q194T2 whole entry): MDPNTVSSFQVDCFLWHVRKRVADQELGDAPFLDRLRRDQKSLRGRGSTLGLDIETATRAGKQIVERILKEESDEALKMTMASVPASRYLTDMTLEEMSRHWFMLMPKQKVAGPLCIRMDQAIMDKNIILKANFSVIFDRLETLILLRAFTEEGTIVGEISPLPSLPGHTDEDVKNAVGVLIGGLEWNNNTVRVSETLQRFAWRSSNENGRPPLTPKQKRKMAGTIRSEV

[14] = HepG2 cell cytotoxicity, dose response, cytotoxicity control for Shn3 inhibitor project, CellTiter-Glo, cherry-picked (AID 624134); assay type: functional, cell-based
[15] = Luminescence Cell-Based Dose Response HTS to Identify Inhibitors of 5'UTR Stem-Loop Driven Prion Protein mRNA Translation in H4 Neuroglioblastoma Cells. [Related pubchem assays: 1827 (Project Summary), 1813 (Primary HTS)]; assay type: functional
[16] = Shn3 3'UTR reporter inhibitors, dose response, cell-based, Clone20 osteoblasts, firefly luciferase, cherry-picked (AID 624132); assay type: functional;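 further: firefly luciferase luminescence from reporter carrying the Shn3 3'UTR in osteoblasts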
[17] = molecular target: Induced myeloid leukemia cell differentiation protein Mcl-1 (Homo sapiens, UniProt Q07820); assay type: functional
Sequence of Induced myeloid leukemia cell differentiation protein Mcl-1 (Q07820 whole entry): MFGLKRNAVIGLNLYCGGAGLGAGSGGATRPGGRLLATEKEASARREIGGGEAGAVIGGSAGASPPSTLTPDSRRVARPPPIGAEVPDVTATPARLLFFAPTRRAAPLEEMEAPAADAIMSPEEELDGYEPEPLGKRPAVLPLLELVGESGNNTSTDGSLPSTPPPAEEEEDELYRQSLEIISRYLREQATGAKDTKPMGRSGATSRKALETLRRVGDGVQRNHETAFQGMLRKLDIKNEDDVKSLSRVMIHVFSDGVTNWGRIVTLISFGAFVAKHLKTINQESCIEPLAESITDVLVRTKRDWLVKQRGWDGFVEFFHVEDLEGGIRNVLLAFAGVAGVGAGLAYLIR

[18] = molecular target: Cytochrome P450 3A4 (Homo sapiens, UniProt P08684);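 further: CYP3A4 tested as one member of a cytochrome P450 panel screen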
Sequence of Cytochrome P450 3A4 (P08684 whole entry): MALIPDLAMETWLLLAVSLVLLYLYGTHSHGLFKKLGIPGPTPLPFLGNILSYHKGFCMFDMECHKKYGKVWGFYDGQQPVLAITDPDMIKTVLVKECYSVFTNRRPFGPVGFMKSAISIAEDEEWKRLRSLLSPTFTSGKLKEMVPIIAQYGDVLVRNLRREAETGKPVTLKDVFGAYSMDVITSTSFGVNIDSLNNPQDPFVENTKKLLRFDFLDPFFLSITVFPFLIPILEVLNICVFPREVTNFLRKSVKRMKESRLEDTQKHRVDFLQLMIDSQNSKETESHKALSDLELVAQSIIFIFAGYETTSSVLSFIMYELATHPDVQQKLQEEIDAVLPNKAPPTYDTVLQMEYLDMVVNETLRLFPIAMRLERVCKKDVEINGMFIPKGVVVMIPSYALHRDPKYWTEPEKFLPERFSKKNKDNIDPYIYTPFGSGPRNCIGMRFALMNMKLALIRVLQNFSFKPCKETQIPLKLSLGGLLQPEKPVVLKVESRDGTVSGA

[19] = molecular target: T3, Protein RecA (Mycobacterium tuberculosis, UniProt P9WHJ3); assay: Fluorescence Cell-Free Homogeneous Dose Retest to Identify Inhibitors of RecA-Intein Splicing Activity. [Related pubchem assays (depositor defined):AID2097, AID2223, AID489010, AID492950]; assay type: functional
T3 sequence (P9WHJ3 whole entry): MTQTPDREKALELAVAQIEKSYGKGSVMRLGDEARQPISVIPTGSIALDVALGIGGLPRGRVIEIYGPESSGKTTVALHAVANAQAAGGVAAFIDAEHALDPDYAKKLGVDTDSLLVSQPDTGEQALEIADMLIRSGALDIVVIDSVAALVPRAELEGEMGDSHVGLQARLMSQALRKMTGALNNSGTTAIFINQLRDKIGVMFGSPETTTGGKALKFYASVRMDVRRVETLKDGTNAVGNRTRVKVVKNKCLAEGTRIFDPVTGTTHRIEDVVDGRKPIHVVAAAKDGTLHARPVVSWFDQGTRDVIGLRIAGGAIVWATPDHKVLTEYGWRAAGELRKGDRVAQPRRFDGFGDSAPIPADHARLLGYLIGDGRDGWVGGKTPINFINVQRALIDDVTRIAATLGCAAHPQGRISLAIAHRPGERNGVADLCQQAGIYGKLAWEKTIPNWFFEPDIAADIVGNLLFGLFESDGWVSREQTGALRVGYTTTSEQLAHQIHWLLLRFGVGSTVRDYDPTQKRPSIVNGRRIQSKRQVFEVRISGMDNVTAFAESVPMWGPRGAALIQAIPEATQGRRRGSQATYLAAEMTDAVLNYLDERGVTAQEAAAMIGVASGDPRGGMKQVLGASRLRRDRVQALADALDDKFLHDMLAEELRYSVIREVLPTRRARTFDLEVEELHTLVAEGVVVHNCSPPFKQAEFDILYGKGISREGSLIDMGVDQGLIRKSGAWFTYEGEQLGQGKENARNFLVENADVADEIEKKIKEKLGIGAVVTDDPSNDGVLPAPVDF

[20] = molecular target: T4, Replicative DNA helicase DnaB (Mycobacterium tuberculosis, UniProt P9WMR3); assay: DnaB intein splicing inhibitors, dose response, biochemical, cell-free fluorescence (AID 449749); assay type: functional
T4 sequence (P9WMR3 whole entry): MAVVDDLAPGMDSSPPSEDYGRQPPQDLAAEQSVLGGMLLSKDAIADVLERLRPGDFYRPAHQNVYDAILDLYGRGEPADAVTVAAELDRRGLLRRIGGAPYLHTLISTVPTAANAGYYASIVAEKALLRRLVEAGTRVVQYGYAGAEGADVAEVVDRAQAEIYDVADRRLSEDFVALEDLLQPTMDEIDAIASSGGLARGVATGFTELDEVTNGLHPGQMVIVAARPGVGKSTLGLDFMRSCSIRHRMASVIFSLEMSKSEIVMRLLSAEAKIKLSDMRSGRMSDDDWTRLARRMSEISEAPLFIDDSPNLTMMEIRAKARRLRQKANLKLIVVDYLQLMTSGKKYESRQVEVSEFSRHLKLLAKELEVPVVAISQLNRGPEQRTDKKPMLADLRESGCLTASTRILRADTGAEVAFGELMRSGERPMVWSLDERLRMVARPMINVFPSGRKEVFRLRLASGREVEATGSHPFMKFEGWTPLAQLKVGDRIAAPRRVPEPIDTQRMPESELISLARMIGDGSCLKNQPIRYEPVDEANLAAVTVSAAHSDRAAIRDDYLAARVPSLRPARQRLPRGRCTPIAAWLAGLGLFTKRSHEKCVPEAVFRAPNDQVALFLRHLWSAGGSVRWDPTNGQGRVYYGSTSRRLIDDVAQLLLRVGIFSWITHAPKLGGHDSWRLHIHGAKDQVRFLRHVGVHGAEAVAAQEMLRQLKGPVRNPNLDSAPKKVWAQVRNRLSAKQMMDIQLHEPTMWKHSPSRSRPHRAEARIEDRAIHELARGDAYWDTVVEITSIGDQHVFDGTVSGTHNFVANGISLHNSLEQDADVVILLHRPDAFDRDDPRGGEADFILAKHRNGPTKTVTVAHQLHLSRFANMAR

Sequence of FAD-linked sulfhydryl oxidase ALR (P55789 whole entry): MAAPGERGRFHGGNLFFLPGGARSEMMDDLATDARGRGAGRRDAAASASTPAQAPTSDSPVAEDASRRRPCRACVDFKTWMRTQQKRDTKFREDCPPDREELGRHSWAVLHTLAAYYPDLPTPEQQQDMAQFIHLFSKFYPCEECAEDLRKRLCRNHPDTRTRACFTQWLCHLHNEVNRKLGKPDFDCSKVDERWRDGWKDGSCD

CN(C)c1ccc(CN(C(=O)c2ccco2)C2CCS(=O)(=O)C2)cc1 (stereo unspecified)
AC50 [1]: 4.16 µM (active)

CCc1c(C)sc(NC(=O)c2ccc(Br)o2)c1C(=O)OC
EC50 [2]: > 260 µM (inactive)

CCC(C)(C)c1ccc(OC(=O)c2cccnc2Cl)cc1
EC50 [2]: 46.8 µM (active)

COc1cccc(N2CCN(Cc3nnnn3C3CCCCC3)CC2)c1
EC50 [3]: > 195 µM (not active) | AC50 [1]: 5.12 µM (active)

CC(=O)c1ccc(OC(=O)c2ccc(-n3nc(C)cc3C)cc2)cc1
IC50 [4]: 7.6 µM (active)

C/C(CC(=O)Nc1ccc(N(C)C)cc1)=N\NC(=O)c1ccc(F)cc1
IC50 [5]: 47.4 µM (active)

Cc1ccccc1-n1c(C)cc(/C=N/NC(=O)c2ccncc2)c1C
IC50 [4]: 0.18 µM (active)

O=C(Oc1ccc(N(C(=O)c2ccncc2)S(=O)(=O)c2cccs2)cc1)c1ccncc1
IC50 [5]: 86 µM (active)

CC(C)(C)NC(=O)c1cccc(NC(=O)CSc2ccc(Cl)cc2)c1
EC50 [2]: > 260 µM (inactive)

COc1ccc(O)c(C(=O)c2cnn(-c3ccccn3)c2)c1
EC50 [6]: 15.4 µM (active) | EC50 [7]: 9.17 µM (active) | EC50 [8]: 43.5 µM (active)

Cc1oc(=O)c(NC(=O)c2ccccc2)cc1C(=O)c1ccccc1
IC50 [4]: > 50 µM (active) | AC50 [9]: 8.91 µM (inconclusive)

CN(C)S(=O)(=O)c1cc(NC(=O)CNCCN2CCOCC2)ccc1Cl
IC50 [5]: 154 µM (active)

Cc1ccc(Cn2cc(S(=O)(=O)c3ccc(Cl)cc3)c(=O)c3cc(F)ccc32)cc1
EC50 [2]: > 260 µM (inactive)

CN(CCCNC(=O)c1cccc(N2CCCC2=O)c1)c1ccccc1
AC50 [1]: 0.823 µM (active)

CC(=O)NCCC(=O)Nc1sc2c(c1-c1nc3ccccc3[nH]1)CCCC2
AC50 [1]: 4.69 µM (active)

COCc1cc(CN2CCCC(C(=O)Nc3ccc(-c4ccco4)cc3)C2)ccc1OC (stereo unspecified)
EC50 [2]: > 260 µM (inactive)

Cc1occc1C(=O)N1CCCC(Nc2ccc(C(C)C)cc2)C1 (stereo unspecified)
AC50 [1]: 3.97 µM (active)

COc1ccccc1/C=C/C(=O)N1CCC(c2ccccc2)C1 (stereo unspecified)
EC50 [6]: 9.44 µM (active) | EC50 [7]: 23.1 µM (active) | EC50 [8]: 27.8 µM (active)

O=C(CSc1n[nH]c(-c2ccccn2)n1)Nc1cccc(Cl)c1
AC50 [10]: 2.9 µM (active) | EC50 [11]: 10.3 µM (active) | EC50 [12]: 9 µM (active) | IC50 [13]: 8.24 µM (active) | AC50 [14]: 3.81 µM (active) | EC50 [15]: 8.65 µM (active) | AC50 [16]: 2.9 µM (active)

Cc1cc(N2CCOCC2)nc2cc(O)ccc12
EC50 [6]: 16.2 µM (active) | EC50 [7]: > 120 µM (not active) | EC50 [8]: 6.94 µM (active)

CC(C(=O)Nc1cc([N+](=O)[O-])ccc1Cl)N1CCN(c2ccc(O)cc2)CC1 (stereo unspecified)
IC50 [17]: 4.33 µM (not active)

COc1cc(/C=N/NC(=O)CC(=O)NC2CCCCC2)ccc1O
IC50 [5]: 51.6 µM (active) | AC50 [1]: 0.175 µM (active)

CN(C)S(=O)(=O)c1cccc(NC(=O)CNCC2CCCCC2)c1
IC50 [5]: 115 µM (active)

Cc1ccc(NC(=O)N/C=C/c2ccco2)cc1C
AC50 [18]: 12.6 µM (inconclusive) | AC50 [1]: 1.7 µM (active)

Nc1nc2c(C(=O)N3CCOCC3)nnn2c2ccccc12
EC50 [6]: 0.138 µM (active) | EC50 [7]: 26.9 µM (active) | EC50 [8]: 0.203 µM (active)

CC1=NN(C(=O)c2csc(C)c2C)C(O)(C(F)(F)F)C1 (stereo unspecified)
IC50 [4]: 42.3 µM (active)

CC(C)c1ccc(Nc2nnc(SCC(=O)c3nnc(-c4ccccc4)o3)s2)cc1
IC50 [17]: 2.72 µM (active)

O=c1[nH]c(CCl)nc2cc(-c3ccc(F)cc3)sc12
EC50 [19]: 5.66 µM (active) | EC50 [2]: 32.1 µM (active) | AC50 [20]: 11.7 µM (active)

COc1cc(-c2nc3ccccn3c2/N=C/c2cc(OC)c(O)cc2Cl)ccc1O
IC50 [5]: 69.7 µM (active)

COc1ccc2cc(S(=O)(=O)N3CCCCC3)ccc2c1S(=O)(=O)N1CCCCC1
EC50 [2]: > 260 µM (inactive)

C=CCn1c(S)nnc1-c1ccccc1[N+](=O)[O-]
AC50 [1]: 1.69 µM (active)
